The values that follow come from US20220017541A1, “INHIBITORS OF ARGINASE” (Black Belt Tx Ltd, priority 2018, published 2022).

One assay addresses T1, recombinant human ARG2 (Homo sapiens, UniProt P78540).
T1 construct: purchased BPS Bioscience 71659
T1 sequence (P78540 23-354): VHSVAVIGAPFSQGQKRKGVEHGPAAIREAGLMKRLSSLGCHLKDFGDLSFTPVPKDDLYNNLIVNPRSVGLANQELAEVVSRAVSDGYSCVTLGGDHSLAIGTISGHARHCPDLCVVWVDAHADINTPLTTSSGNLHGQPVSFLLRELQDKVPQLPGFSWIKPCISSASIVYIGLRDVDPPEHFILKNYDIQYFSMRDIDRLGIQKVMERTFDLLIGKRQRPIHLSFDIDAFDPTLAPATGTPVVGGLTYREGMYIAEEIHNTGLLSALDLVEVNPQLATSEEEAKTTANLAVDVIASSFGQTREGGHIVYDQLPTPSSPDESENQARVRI
Put plainly: Arginase enzymatic assay in vitro, recombinant human ARG2 (colorimetric urea detection). Particulars: recombinant human arginase 2; read-out: IC50 Inh rhARG2. It is filed as biochemical. From the text: (§1) Arginase catalyzes the hydrolysis of L-arginine into L-ornithine and urea. Urea amount produced by this reaction can be detected using a colorimetric assay and used as an indirect measurement of arginase activity. An adapted protocol from (Baggio, R., et al., J Pharmacol Exp Ther, 1999. 290(3): p. 1409-16) was used for the testing the ability of exemplary compounds of the invention to inhibit arginase enzymes from a variety of sources including recombinant human ARG1 and 2, lysates of human red blood cells (RBC) and intact murine macrophages, as described below.
(§2) Compounds of the invention were prepared from powder as 10 mM stock solutions in DMSO and stored in presence of N2 neutral atmosphere at −80° C. For IC50 determination and just before the assay, exemplary compounds were successively diluted to get the following concentrations: 210, 70, 21, 7, 2.1, 0.7, 0.21, 0.07, 0.021, 0.007, 0.0021 and 0.0007 μM (i.e., final concentrations in the wells of 30, 10, 3, 1, 0.3, 0.1, 0.03, 0.01, 0.003, 0.001, 0.0003, 0.0001 μM).
(§3) Assays were run in clear flat bottom 96-well plates (Nunclon, Cat. No. #167008) adding in each well the following solutions in this order: (1) 10 μl of Tris-HCl solution supplemented with 0.1% bovine serum albumin (BSA) containing 1.563 μg/ml recombinant human ARG1 (R&D System, Cat. No. #5868-AR-010), (2) 30 μl of Tris-HCl buffer containing 10 mM MnCl2 and (3) 10 μL of a pre-dilution of each test article or DMSO (vehicle). Compounds were allowed to interact with the enzyme-cofactor complex pre-incubating the plate at 37° C. for 30 min. To start the reaction, 20 μl of 50 mM L-arginine (Sigma Aldrich Cat. #A5006-100G) were added to each well in exception of the blank reaction (see below). All reactions were allowed to happen for 1 h at 37° C. To detect the urea production, reactions were stopped by adding 200 μl of a mixture of reagent A (4 mM o-phthalaldehyde in 50 mM Boric Acid, 1 M Sulfuric Acid, 0.03% Brij-35 (w/v)) and reagent B (4 mM N-(1-naphthyl)ethylenediamine in 50 mM Boric Acid, 1 M Sulfuric Acid, 0.03% Brij-35 (w/v)) in equal proportion. Color product was developed for 1 h at room temperature (RT) protected from light and then absorbance at 520 nm was measured using a Multifunction Microplate Reader (Synergy 4, Bioteck). Blank reactions were carried out by adding the L-arginine substrate only after the addition of mixture A-B. All reactions were carried out in duplicates.
(§4) The inhibition of urea production was calculated subtracting the absorbance from the blank reaction (zero enzymatic urea production) to the absorbance from all reactions and it was expressed as the percentage of the absorbance from the reaction containing the test article with respect to the absorbance from vehicle reaction (maximum of urea production).
For testing inhibitory activity over recombinant human arginase II, 10 μl of Tris-HCl solution supplemented with 0.1% BSA containing 1.5 μg/ml recombinant human ARG2 (BPS Bioscience, Cat. No. #71659) was used instead of ARG1.

For a further assay, the target named is T2, recombinant human ARG1 (Homo sapiens, UniProt P05089).
T2 construct: purchased R&D System 5868-AR-010
T2 sequence (P05089 1-322): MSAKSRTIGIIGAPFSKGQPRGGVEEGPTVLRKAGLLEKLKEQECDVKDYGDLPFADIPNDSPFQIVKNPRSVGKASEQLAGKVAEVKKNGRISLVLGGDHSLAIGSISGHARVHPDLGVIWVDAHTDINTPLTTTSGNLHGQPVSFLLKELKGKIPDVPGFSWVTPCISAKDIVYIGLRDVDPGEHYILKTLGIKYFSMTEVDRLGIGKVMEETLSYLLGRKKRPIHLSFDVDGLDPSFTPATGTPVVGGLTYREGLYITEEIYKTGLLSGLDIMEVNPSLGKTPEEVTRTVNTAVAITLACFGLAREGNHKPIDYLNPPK
Put plainly: Arginase enzymatic assay in vitro, recombinant human ARG1 (colorimetric urea detection). It is filed as biochemical. Particulars: recombinant human arginase 1; read-out: IC50 Inh rhARG1.
Source text: as §1, §2, §3, §4

The target in assay [1] is T3, arginase activity in intact BMM-M2 cells (Mus musculus, UniProt Q61176).
T3 construct: endogenous in cells; host or cells: bone-marrow derived macrophages from male C57BL/6 mice, polarised to M2 with IL-4
T3 sequence (Q61176 1-323): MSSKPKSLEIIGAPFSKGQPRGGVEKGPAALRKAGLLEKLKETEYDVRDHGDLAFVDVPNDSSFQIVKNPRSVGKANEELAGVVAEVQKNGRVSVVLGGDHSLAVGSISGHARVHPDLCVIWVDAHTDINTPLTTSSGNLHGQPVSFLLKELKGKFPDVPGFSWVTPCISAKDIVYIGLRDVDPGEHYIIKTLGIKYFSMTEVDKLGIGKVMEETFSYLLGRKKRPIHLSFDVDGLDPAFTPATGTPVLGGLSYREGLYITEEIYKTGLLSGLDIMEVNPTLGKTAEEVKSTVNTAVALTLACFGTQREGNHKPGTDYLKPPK
Put plainly: Cell-based arginase assay: urea production by cultured BMM-M2 cells. The note with it: 10 μM test compound, 24 h; for inhibition at 10 µM: read-out: Inh. urea production @10 μM (%). The protocol: Murine bone-marrow derived macrophages (BMM) represent a convenient in vitro model that enables differentiation of these cells towards M1 or M2 macrophages. Briefly, male C57BL/6 mice 7-8 weeks old were euthanized by carbon dioxide asphyxiation. Femur and tibiae bones were removed under aseptic conditions and collected in a plate containing sterile ice-cold PBS 1×. After sterilization of bones in 70% ethanol during 1 min, bones were placed into a clean Petri dish containing fresh sterile ice-cold PBS 1×. The ends of each bone were cut and the marrow cavity was flushed using forceps and syringes filled with pre-warmed complete α-MEM growing medium (α-MEM without red phenol (Life Technologies, Cat. No. #41061-029) supplemented with 10% FBS, penicillin and streptomycin). Bone marrow (BM) cells were harvested in a 15 ml clean tube and centrifuged at 400 g for 8 min at RT. Supernatant was discarded and BM pellet was re-suspended in 5 ml Ammonium-Chloride-Potassium (ACK) buffer for 5 minutes at RT to lysis RBC. BM cell suspension was centrifuged at 400 g for 8 min at RT. Supernatant was discarded and BM cell pellet was re-suspended in complete α-MEM growing medium and passed through a 70 μm cell restrainer to eliminate solid contaminates and cellular aggregates. BM cells were seeded in 8 ml of complete α-MEM growing medium supplemented with 100 ng/ml recombinant mouse M-CSF (R&D Systems, Cat. No. #416-ML-050) in 100-mm dishes. BM cells were cultured overnight to get rid of contaminating stromal cells in a humidified incubator with 5% CO2 at 37° C. At the following day, non-adherent cells were collected in a clean 15-ml tube and centrifuged at 400 g for 8 min at RT. Cell pellet was re-suspended in complete α-MEM growing medium and counted using a hemocytometer Neubauer's chamber. Hematopoietic precursor cells were differentiated into BMM in presence of complete α-MEM growing medium supplemented 50 ng/ml M-CSF for 3 days. Finally to polarize BMM towards M2 phenotype, cells were incubated in presence 20 ng/ml of recombinant mouse IL-4 (R&D Systems, Cat. No. #404-ML-010) added to fresh complete α-MEM growing medium supplemented 50 ng/ml M-CSF for 24 h.
At the day of the experiment, BMM-M2 were treated for 24 h with vehicle (DMSO) or compounds of the invention at 1 and 10 μM prepared in fresh complete α-MEM growing medium supplemented 50 ng/ml M-CSF, 20 ng/ml IL-4 and 10 mM L-arginine (Cat. No. #A5006, Sigma Aldrich). At the next day, 70 μl aliquots of each treated culture media (supernatants) were transferred into a clear 96-well plate. Measurements of urea produced by BMM-M2 were performed using the adapted protocol detailed in Example B1. Wells without BMM-M2 containing only treatment media (vehicle) were used to determine the zero cell-derived urea production (blank). All treatments were carried out in triplicates.
The inhibition of urea production was calculated subtracting the absorbance from the blank to the absorbance from all treatments and it was expressed as the percentage of the absorbance from the reaction containing the test article treatment with respect to the absorbance from vehicle treatment (maximum of urea production).

Regarding `NC(CCCCB(O)O)(C(=O)O)C1CCN(C2CCCc3ccccc32)CC1` (single isomer, unassigned) [Compound 7, 2-amino-6-borono-2-(1-(1,2,3,4-tetrahydronaphthalen-1-yl)piperidin-4-yl)hexanoic acid], the IC50 – broadly, the concentration that gives 50% inhibition – at recombinant human ARG2 is 500 to 5000 nM; at recombinant human ARG1 it was less than 500 nM.

Take `NC(CCCCB(O)O)(C(=O)O)C1CCN(C2CCCc3ccccc32)CC1` (single isomer, unassigned) [Compound 8, 2-amino-6-borono-2-(1-(1,2,3,4-tetrahydronaphthalen-1-yl)piperidin-4-yl)hexanoic acid]: the concentration for half-maximal inhibition (IC50) on recombinant human ARG2 and on recombinant human ARG1 was less than 500 nM each time.

Turning to `NC(CCCCB(O)O)(C(=O)O)C1CCN(C2CCc3cc(F)c(F)cc32)CC1` (single isomer, unassigned) [Compound 19, 2-amino-6-borono-2-[1-(5,6-difluoroindan-1-yl)-4-piperidyl]hexanoic acid], the IC50 on recombinant human ARG2 and at recombinant human ARG1 was less than 500 nM throughout. Further, the “Inh. urea production @10 μM (%)” value in assay [1] is reported as “++ (25% < % inhibition < 15% at 10 μM test compound)”.

As to `NC(CCCCB(O)O)(C(=O)O)C1CCN(C2Cc3ccccc3C2)CC1` (single isomer, unassigned) [Compound 24, 2-amino-6-borono-2-(1-(2,3-dihydro-1H-inden-2-yl)piperidin-4-yl)hexanoic acid], the concentration for half-maximal inhibition (IC50) on recombinant human ARG2 and at recombinant human ARG1 was 500 to 5000 nM each time. Further, the “Inh. urea production @10 μM (%)” value in assay [1] is reported as “++ (25% < % inhibition < 15% at 10 μM test compound)”.

As for `NC(CCCCB(O)O)(C(=O)O)C1CCN(C2Cc3ccccc3C2)CC1` (single isomer, unassigned) [Compound 25, 2-amino-6-borono-2-(1-(2,3-dihydro-1H-inden-2-yl)piperidin-4-yl)hexanoic acid], the IC50 at recombinant human ARG2 and at recombinant human ARG1 was more than 5000 nM each time.

Turning to `NC(CCCCB(O)O)(C(=O)O)C1CCN(C2CCc3ccc(C(F)(F)F)cc32)CC1` (single isomer, unassigned) [Compound 35, 2-amino-6-borono-2-[1-[6-(trifluoromethyl)indan-1-yl]-4-piperidyl]hexanoic acid], the IC50 on recombinant human ARG2 and on recombinant human ARG1 was less than 500 nM each time. For the same compound, the inhibition at 10 µM in assay [1] is less than 15%.

On to `NC(CCCCB(O)O)(C(=O)O)C1CCN(C2CCCc3c(Br)cccc32)CC1` (single isomer, unassigned) [Compound 86, 2-amino-6-borono-2-(1-(5-bromo-1,2,3,4-tetrahydronaphthalen-1-yl)piperidin-4-yl)hexanoic acid], for which the figures for the IC50 at recombinant human ARG2 and on recombinant human ARG1 were 500 to 5000 nM and less than 500 nM, respectively. Further, in assay [1], the “Inh. urea production @10 μM (%)” value was “++ (25% < % inhibition < 15% at 10 μM test compound)”.

Take `NC(CCCCB(O)O)(C(=O)O)C1CCN(C2CCCc3cc(-c4ccccc4)ccc32)CC1` (single isomer, unassigned) [Compound 87, 2-amino-6-borono-2-(1-(6-phenyl-1,2,3,4-tetrahydronaphthalen-1-yl)piperidin-4-yl)hexanoic acid]: the IC50 on recombinant human ARG2 and at recombinant human ARG1 was less than 500 nM throughout. Besides, in assay [1], the inhibition at 10 µM is more than 25%.

Turning to `NC(CCCCB(O)O)(C(=O)O)C1CCN(C2CCc3ccc(F)cc32)CC1` (single isomer, unassigned) [Compound 88, 2-amino-6-borono-2-(1-(6-fluoro-2,3-dihydro-1H-inden-1-yl)piperidin-4-yl)hexanoic acid], the half-maximal inhibitory concentration (IC50) on recombinant human ARG2 and at recombinant human ARG1 was less than 500 nM in each case. Moreover, the inhibition at 10 µM in assay [1] is more than 25%.

Consider `CCCC(c1ccccc1)N1CCC(C(N)(CCCCB(O)O)C(=O)O)CC1` (single isomer, unassigned) [Compound 90, 2-amino-6-borono-2-[1-(1-phenylbutyl)-4-piperidyl]hexanoic acid], for which the 50% inhibitory concentration (IC50) on recombinant human ARG2 and at recombinant human ARG1 was 500 to 5000 nM in each case.

For `NC(CCCCB(O)O)(C(=O)O)C1CCN(C2Cc3ccccc3C2)CC1` (stereo not shown) [Compound 23, 2-amino-6-borono-2-(1-(2,3-dihydro-1H-inden-2-yl)piperidin-4-yl)hexanoic acid], the IC50 at recombinant human ARG2 and on recombinant human ARG1 was more than 5000 nM throughout.
